Laboratory results published in BindingDB's records for PubMed 26907156 (n/a, 2016).

Biological target: CDK2/Cyclin E
Assay: Inhibition of CDK2/Cyclin E (unknown origin) using histone as substrate incubated for 30 mins in presence of gamma[33P]ATP by digital imaging analysis

Row | IC50 [nM] | SMILES
1 | 20 | CC(C)n1cnc2c(NCc3cc(Cl)ccc3O)nc(NCCC(C)(C)O)nc21
2 | 20 | CCC(CO)Nc1nc(NCc2cc(C)ccc2O)c2ncn(C(C)C)c2n1 (stereo not drawn)
3 | 20 | COc1cccc(CNc2nc(NC3CCCCC3N)nc3c2ncn3C(C)C)c1O (stereo not drawn)
